Assay results taken from PubChem BioAssay AID248 (DTP/NCI, 2004).
Values joined by “and” are separate entries in the source; they are usually repeats but may differ in a detail not shown here. Equal entries are not always repeated. Inconclusive results and toxic doses are left out. No stated cut-off is given here; in the data, active means T/C of 150% or more; inactive means T/C below 125%.

Tested on: L1210 leukemia ip in BDF1 mice, survival T/C
Experiment: NCI In Vivo Anticancer Drug Screen. Data for tumor model L1210 Leukemia (intraperitoneal) in B6D2F1 (BDF1) mice
Details: endpoint: mean survival time, higher = longer survival
In short: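 Transplantable tumor model; survival measured in treated vs vehicle control mice. Value = treated/control.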

[1] = dose: 6.25 mg/kg/injection, schedule: Q01DX009 (ip), vehicle: saline
[2] = dose: 50.0 mg/kg/injection, schedule: Q01DX009 (ip), vehicle: saline
[3] = dose: 100.0 mg/kg/injection, schedule: Q01DX009 (ip), vehicle: saline
[4] = dose: 100.0 mg/kg/injection, schedule: Q04DX003 (ip), vehicle: saline
[5] = dose: 100.0 mg/kg/injection, schedule: Q01DX001 (ip), vehicle: Klucel (hydroxypropylcellulose) (HPC)
[6] = dose: 200.0 mg/kg/injection, schedule: Q01DX001 (ip), vehicle: Klucel (hydroxypropylcellulose) (HPC)
[7] = dose: 400.0 mg/kg/injection, schedule: Q01DX001 (ip), vehicle: Klucel (hydroxypropylcellulose) (HPC)
[8] = dose: 100.0 mg/kg/injection, schedule: Q01DX001 (ip), vehicle: saline
[9] = dose: 200.0 mg/kg/injection, schedule: Q01DX001 (ip), vehicle: saline
[10] = dose: 100.0 mg/kg/injection, schedule: Q04DX003 (ip), vehicle: Klucel (hydroxypropylcellulose) (HPC)
[11] = dose: 200.0 mg/kg/injection, schedule: Q04DX003 (ip), vehicle: Klucel (hydroxypropylcellulose) (HPC)
[12] = dose: 200.0 mg/kg/injection, schedule: Q01DX009 (ip), vehicle: saline
[13] = dose: 200.0 mg/kg/injection, schedule: Q04DX003 (ip), vehicle: saline
[14] = dose: 400.0 mg/kg/injection, schedule: Q04DX003 (ip), vehicle: saline
[15] = dose: 6.25 mg/kg/injection, schedule: Q01DX009 (ip), vehicle: saline with Tween-80
[16] = dose: 12.5 mg/kg/injection, schedule: Q01DX009 (ip), vehicle: saline with Tween-80
[17] = dose: 12.5 mg/kg/injection, schedule: Q04DX003 (ip), vehicle: saline with Tween-80
[18] = dose: 25.0 mg/kg/injection, schedule: Q04DX003 (ip), vehicle: saline with Tween-80
[19] = dose: 100.0 mg/kg/injection, schedule: Q01DX001 (ip), vehicle: saline with Tween-80
[20] = dose: 100.0 mg/kg/injection, schedule: Q04DX003 (ip), vehicle: saline with Tween-80
[21] = dose: 200.0 mg/kg/injection, schedule: Q04DX003 (ip), vehicle: saline with Tween-80

Measured: T/C

CCNC(Cc1ccccc1)C1CCCO1 (stereo unspecified)
inactive: [1] 108 % of control | dose: 12.5 mg/kg/injection, schedule: Q01DX009 (ip), vehicle: saline 94 % of control | dose: 25.0 mg/kg/injection, schedule: Q01DX009 (ip), vehicle: saline 96 % of control | dose: 25.0 mg/kg/injection, schedule: Q04DX003 (ip), vehicle: saline 98 % of control | [2] 113 % of control | dose: 50.0 mg/kg/injection, schedule: Q04DX003 (ip), vehicle: saline 101 % of control | [3] 92 % of control | [4] 104 % of control

CC1(C)OC2C(CO)OC(n3nnc4c(SCc5ccccc5)nc(N)nc43)C2O1 (stereo unspecified)
inactive: [5] 98 % of control | [6] 92 % of control | [7] 101 % of control

CC1Cn2ccc(=O)nc2S1 (stereo unspecified)
inactive: dose: 50.0 mg/kg/injection, schedule: Q01DX001 (ip), vehicle: saline 112 % of control | [8] 110 % of control | [9] 105 % of control

COC(=O)C(=CC(Cl)(Cl)Cl)C(=O)OC
inactive: dose: 6.2 mg/kg/injection, schedule: Q01DX009 (ip), vehicle: Klucel (hydroxypropylcellulose) (HPC) 102 % of control | dose: 12.5 mg/kg/injection, schedule: Q01DX009 (ip), vehicle: Klucel (hydroxypropylcellulose) (HPC) 96 % of control | dose: 25.0 mg/kg/injection, schedule: Q01DX009 (ip), vehicle: Klucel (hydroxypropylcellulose) (HPC) 96 % of control | dose: 25.0 mg/kg/injection, schedule: Q04DX003 (ip), vehicle: Klucel (hydroxypropylcellulose) (HPC) 102 % of control | dose: 50.0 mg/kg/injection, schedule: Q04DX003 (ip), vehicle: Klucel (hydroxypropylcellulose) (HPC) 97 % of control | [5] 101 % of control | [10] 97 % of control | [6] 105 % of control | [11] 102 % of control

C[C@]12CCC(=O)C=C1CC[C@@H]1[C@@H]2[C@@H](O)C[C@@]2(C)[C@H]1CC[C@]2(C)O
inactive: [2] 91 % of control | [3] 97 % of control | [12] 102 % of control

CC(C)N(CCO)CCO
inactive: [4] 100 % of control | [13] 102 % of control | [14] 100 % of control

COc1ccc(C(O)c2nnc(C(O)c3ccc(OC)cc3)nn2)cc1 (stereo unspecified)
inactive: dose: 100.0 mg/kg/injection, schedule: Q01DX009 (ip), vehicle: saline with Tween-80 96 % of control | dose: 100.0 mg/kg/injection, schedule: Q04DX002 (ip), vehicle: Klucel (hydroxypropylcellulose) (HPC) 103 % of control | dose: 200.0 mg/kg/injection, schedule: Q01DX009 (ip), vehicle: saline with Tween-80 96 % of control | dose: 200.0 mg/kg/injection, schedule: Q04DX002 (ip), vehicle: Klucel (hydroxypropylcellulose) (HPC) 90 % of control | dose: 400.0 mg/kg/injection, schedule: Q01DX009 (ip), vehicle: saline with Tween-80 86 % of control | dose: 400.0 mg/kg/injection, schedule: Q04DX002 (ip), vehicle: Klucel (hydroxypropylcellulose) (HPC) 100 % of control

OC(CN1CCCCC1)c1ccc(/C=C/c2ccc(Cl)cc2)cc1 (stereo unspecified)
inactive: [15] 101 % of control | dose: 6.25 mg/kg/injection, schedule: Q04DX003 (ip), vehicle: saline with Tween-80 93 % of control | [16] 93 % of control | [17] 88 % of control | [18] 98 % of control and 87 % of control | [19] 88 % of control

C[N+](C)(C)CC[N+](C)(C)C
inactive: [3] 108 % of control | [4] 100 % of control | [12] 106 % of control | [13] 110 % of control | dose: 400.0 mg/kg/injection, schedule: Q01DX009 (ip), vehicle: saline 100 % of control | [14] 97 % of control

O=C(/C(=C1\SS/C(=C(/C(=O)c2ccccc2)c2ccccc2)S1)c1ccccc1)c1ccccc1
inactive: [5] 114 % of control | [10] 100 % of control | [6] 108 % of control | [11] 97 % of control | [7] 104 % of control | dose: 400.0 mg/kg/injection, schedule: Q04DX003 (ip), vehicle: Klucel (hydroxypropylcellulose) (HPC) 94 % of control

C/C(Cl)=C/C(=O)O
inactive: dose: 25.0 mg/kg/injection, schedule: Q04DX002 (ip), vehicle: saline 106 % of control | dose: 50.0 mg/kg/injection, schedule: Q04DX002 (ip), vehicle: saline 92 % of control | [19] 102 % of control | dose: 100.0 mg/kg/injection, schedule: Q04DX002 (ip), vehicle: saline 92 % of control | dose: 200.0 mg/kg/injection, schedule: Q01DX001 (ip), vehicle: saline with Tween-80 105 % of control | dose: 200.0 mg/kg/injection, schedule: Q04DX002 (ip), vehicle: saline 98 % of control and 102 % of control | dose: 400.0 mg/kg/injection, schedule: Q01DX001 (ip), vehicle: saline with Tween-80 96 % of control

COC(=O)C(OC)(OC)C(OC)OC
inactive: [8] 97 % of control | [9] 103 % of control | dose: 400.0 mg/kg/injection, schedule: Q01DX001 (ip), vehicle: saline 106 % of control

COc1ccc(N=NNc2ccc(OC)cc2)cc1
inactive: [15] 101 % of control | [16] 102 % of control | [17] 97 % of control | dose: 25.0 mg/kg/injection, schedule: Q01DX009 (ip), vehicle: saline with Tween-80 98 % of control and 90 % of control | [18] 95 % of control | dose: 50.0 mg/kg/injection, schedule: Q04DX003 (ip), vehicle: saline with Tween-80 97 % of control | [20] 98 % of control

O=C(Nn1cn[nH]c1=S)Oc1ccccc1
inactive: [20] 103 % of control | [21] 103 % of control

CC(=O)OC1CCC(OC(C)=O)C(C#N)(C#N)C1(C#N)C#N (stereo unspecified)
inactive: [20] 104 % of control | [21] 93 % of control

C[N+](C)(C)CCOC(=O)c1ccccc1CBr
inactive: dose: 1.5 mg/kg/injection, schedule: Q04DX002 (ip), vehicle: other 98 % of control | dose: 3.0 mg/kg/injection, schedule: Q04DX002 (ip), vehicle: other 90 % of control | dose: 3.13 mg/kg/injection, schedule: Q01DX009 (ip), vehicle: saline 101 % of control | dose: 6.0 mg/kg/injection, schedule: Q04DX002 (ip), vehicle: other 105 % of control | [1] 97 % of control | dose: 6.25 mg/kg/injection, schedule: Q04DX003 (ip), vehicle: saline 105 % of control | dose: 12.5 mg/kg/injection, schedule: Q04DX003 (ip), vehicle: saline 91 % of control
